For nine molecules, Ki and Km results are on record in ChEMBL document CHEMBL2074081, “Functional characteristics and membrane localization of rat multispecific organic cation transporters, OCT1 and OCT2, mediating tubular secretion of cationic drugs” (J Pharmacol Exp Ther, 1998).

Data set [1] has as its target T1, Solute carrier family 22 member 2 (Rattus norvegicus, UniProt Q9R0W2).
T1 sequence (Q9R0W2 whole entry): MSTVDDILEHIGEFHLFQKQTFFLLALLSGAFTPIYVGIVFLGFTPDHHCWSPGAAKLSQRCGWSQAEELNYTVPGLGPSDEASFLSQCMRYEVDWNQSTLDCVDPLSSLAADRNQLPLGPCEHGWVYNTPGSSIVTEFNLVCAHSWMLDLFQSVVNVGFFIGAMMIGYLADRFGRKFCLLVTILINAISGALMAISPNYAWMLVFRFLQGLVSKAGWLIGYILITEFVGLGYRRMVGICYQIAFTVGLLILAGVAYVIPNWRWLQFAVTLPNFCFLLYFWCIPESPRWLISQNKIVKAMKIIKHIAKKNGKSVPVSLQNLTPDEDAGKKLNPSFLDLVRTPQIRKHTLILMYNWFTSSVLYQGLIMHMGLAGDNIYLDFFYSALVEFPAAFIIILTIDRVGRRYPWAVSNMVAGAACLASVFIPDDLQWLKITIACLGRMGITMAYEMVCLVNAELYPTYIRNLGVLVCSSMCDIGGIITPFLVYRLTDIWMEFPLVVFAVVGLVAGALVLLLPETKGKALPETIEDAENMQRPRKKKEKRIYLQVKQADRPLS
In words: TP_TRANSPORTER: inhibition of TEA uptake (basolateral to cell) in OCT2-expressing MDCK cells. Format: functional, cell-based.

Data set [2] concerns the target T2, Solute carrier family 22 member 1 (Rattus norvegicus, UniProt Q63089).
T2 sequence (Q63089 whole entry): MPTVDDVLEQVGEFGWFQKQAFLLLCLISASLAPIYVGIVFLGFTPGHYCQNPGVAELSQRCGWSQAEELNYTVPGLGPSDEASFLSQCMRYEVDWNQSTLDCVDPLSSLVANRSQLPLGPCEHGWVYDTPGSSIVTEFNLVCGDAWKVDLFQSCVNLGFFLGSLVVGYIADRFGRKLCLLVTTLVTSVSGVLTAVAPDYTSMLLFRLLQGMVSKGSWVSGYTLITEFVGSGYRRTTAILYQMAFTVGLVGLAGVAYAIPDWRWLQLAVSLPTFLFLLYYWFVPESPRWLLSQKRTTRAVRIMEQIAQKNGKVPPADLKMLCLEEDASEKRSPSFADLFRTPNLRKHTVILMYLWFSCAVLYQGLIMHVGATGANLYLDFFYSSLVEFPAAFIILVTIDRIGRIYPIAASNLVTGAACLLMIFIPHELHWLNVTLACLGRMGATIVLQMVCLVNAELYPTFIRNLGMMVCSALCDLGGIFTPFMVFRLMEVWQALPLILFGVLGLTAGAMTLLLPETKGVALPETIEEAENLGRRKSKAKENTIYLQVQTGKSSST
The data set can be described thus: TP_TRANSPORTER: inhibition of TEA uptake (basolateral to cell) in OCT1-expressing MDCK cells. Format: functional, cell-based.

Data set [3] deals with T1, Solute carrier family 22 member 2. In words: TP_TRANSPORTER: inhibition of TEA uptake (apical to cell) in OCT2-expressing MDCK cells.
Substrate in data set [4]: CC[N+](CC)(CC)CC
In words: cells, lysate or membranes named.

As a reminder, the Ki is the equilibrium dissociation constant of an inhibitor or competing ligand from its target. Higher therefore signals lower affinity. For orientation: Km means the substrate concentration at which the rate is half of its maximum.

Take `C[n+]1ccc(-c2ccccc2)cc1`: the results for the Ki in data set [1] and in data set [2] were 1.8 µM and 0.8 µM, respectively. Take `CN/C(=N/CCSCc1nc[nH]c1C)NC#N` [CIMETIDINE]: the Ki in data set [1] came out at 9.4 µM; in data set [2], 5.7 µM.

For `N=C(N)N` [GUANIDINE], the figures for the Ki in data set [1] and in data set [2] were 714 µM and 724 µM, respectively. Take `CN1CCC[C@H]1c1cccnc1` [NICOTINE]: the Ki in data set [1] worked out at 50.5 µM; in data set [2] it was 64.3 µM.

As to `CNC(=O)c1cccnc1` [NICOTINYL METHYLAMIDE], the Ki in data set [1] was 403 µM; in data set [2], 669 µM. `C=C[C@H]1C[N@@]2CC[C@H]1C[C@@H]2[C@@H](O)c1ccnc2ccc(OC)cc12` [QUINIDINE]: the Ki in data set [1] came out at 19.1 µM. This lies in the double-digit micromolar range. Consider `CC[N+](CC)(CC)CC` [TETRYLAMMONIUM], for which the values for the Ki in data set [3] and in data set [2] were 52.2 µM and 46.6 µM, respectively.

B1: Solute carrier family 22 member 1 (Rattus norvegicus) (protein)
chain: T2 sequence (Q63089 whole entry)
Turning to B1, the Michaelis-Menten constant (Km) in data set [4] is 38 µM.

B2: Solute carrier family 22 member 2 (Rattus norvegicus) (protein)
chain: T1 sequence (Q9R0W2 whole entry)
As for B2, the Km in data set [4] was 45 µM.
